Assay results from DBAASP.
Values after ≈ are worked out from the molar mass of the structure shown.

Columns and labels:
Assay in all cases: ≥ marks a high value that may be exact or a test limit, other limits are often not marked, values filed in µg/mL are converted to µM
[1] = tested on: Escherichia coli ATCC 25922
[2] = tested on: Pseudomonas aeruginosa ATCC 27853
[3] = tested on: Staphylococcus aureus ATCC 29213
[4] = tested on: Staphylococcus aureus ATCC 25923

Structure (SMILES)	MIC [1]	MIC [2]	MIC [3]	MIC [4]
CSCC[C@H](NC(=O)[C@H](CC(N)=O)NC(=O)[C@H](Cc1ccccc1)NC(=O)CNC(=O)[C@H](CC(=O)O)NC(=O)[C@H](CC(C)C)NC(=O)[C@H](CCCCN)NC(=O)[C@H](CCSC)NC(=O)[C@H](CCC(=O)O)NC(=O)[C@@H](N)CC(=O)O)C(=O)N[C@@H](Cc1cnc[nH]1)C(=O)N[C@@H](CC(C)C)C(=O)N[C@@H](CCC(=O)O)C(N)=O [DEMKLDGFNMHLE]	20 µM (≈ 31.6 µg/mL)	–	–	40.5 µM (≈ 63.9 µg/mL)
CC[C@H](C)[C@H](NC(=O)[C@H](CCCN=C(N)N)NC(=O)[C@H](CCC(N)=O)NC(=O)[C@@H](NC(=O)[C@@H](NC(=O)[C@H](CCCN=C(N)N)NC(=O)[C@H](CCCCN)NC(=O)[C@@H](N)Cc1ccccc1)[C@@H](C)CC)C(C)C)C(=O)N[C@@H](CCCCN)C(=O)N[C@@H](CC(=O)O)C(=O)N[C@@H](CC(N)=O)C(=O)N[C@@H](CC(C)C)C(=O)N[C@@H](CCCN=C(N)N)C(=O)O [FKRIVQRIKDNLR]	20 µM (≈ 33.7 µg/mL)	–	> 40 µM	–
CC[C@H](C)[C@H](NC(=O)[C@H](CCSC)NC(=O)[C@H](C)NC(=O)[C@@H]1CCCN1C(=O)[C@@H](NC(=O)[C@@H](NC(=O)[C@H](CCCCN)NC(=O)[C@@H](NC(=O)[C@H](CC(C)C)NC(=O)CNC(=O)CN)[C@@H](C)CC)[C@@H](C)CC)C(C)C)C(=O)N[C@H]1CSSC[C@@H](C(=O)O)NC(=O)[C@H](CCCCN)NC(=O)[C@H](CCCCN)NC(=O)[C@H]([C@@H](C)O)NC(=O)[C@H](C(C)C)NC(=O)[C@H](C)NC1=O [GGLIKIVPAMICAVTKKC]	> 139 µM	> 139 µM	139 µM (≈ 256 µg/mL)	–
CC[C@H](C)[C@H](NC(=O)CN)C(=O)NCC(=O)N[C@@H](CCCN=C(N)N)C(=O)N[C@@H](CCCCN)C(=O)N[C@@H](Cc1ccccc1)C(=O)N[C@@H](CC(C)C)C(=O)NCC(=O)NCC(=O)N[C@H](C(=O)N[C@@H](CCCCN)C(=O)N[C@H](C(=O)N[C@H](C(=O)N[C@@H](Cc1ccccc1)C(=O)N[C@@H](CCCN=C(N)N)C(=O)N[C@@H](CS)C(=O)NCC(=O)N[C@H](C(=O)N[C@@H](CCCCN)C(=O)N[C@@H](CC(=O)O)C(=O)N[C@@H](Cc1ccccc1)C(=O)N[C@@H](C)C(=O)N[C@@H](CO)C(=O)N[C@@H](CCCCN)C(=O)N[C@@H](Cc1cnc[nH]1)C(=O)N[C@@H](CC(C)C)C(=O)N[C@@H](Cc1ccc(O)cc1)C(N)=O)C(C)C)[C@@H](C)O)[C@@H](C)O)C(C)C [GIGRKFLGGVKTTFRCGVKDFASKHLY]	150 µM (≈ 448 µg/mL)	–	–	–
CC[C@H](C)[C@H](NC(=O)[C@H](CCCN=C(N)N)NC(=O)[C@H](CCCCN)NC(=O)[C@H](CC(C)C)NC(=O)[C@H](CC(C)C)NC(=O)CN)C(=O)N[C@@H](CCCCN)C(N)=O [GLLKRIK]	> 33.9 µM	–	–	> 33.9 µM
CC[C@H](C)[C@H](NC(=O)[C@H](CCCN=C(N)N)NC(=O)[C@H](CCCCN)NC(=O)[C@@H](NC(=O)[C@@H](NC(=O)CN)C(C)C)C(C)C)C(=O)N[C@@H](CCCCN)C(=O)N[C@H](C(=O)N[C@H](C(=O)N[C@H](C(N)=O)C(C)C)C(C)C)[C@@H](C)O [GVVKRIKTVV]	> 200 µM	–	–	–
CC(C)C[C@H](NC(=O)[C@@H](NC(=O)[C@H](CCCCN)NC(=O)CNC(=O)[C@H](Cc1ccccc1)NC(=O)[C@@H](NC(=O)[C@H](CC(=O)O)NC(=O)CNC(=O)[C@H](Cc1c[nH]c2ccccc12)NC(=O)CN)[C@@H](C)O)C(C)C)C(=O)N[C@@H](CCCCN)C(=O)N[C@@H](CC(N)=O)C(=O)N[C@@H](Cc1ccccc1)C(=O)N[C@@H](C)C(=O)N[C@@H](CCCCN)C(=O)N[C@H](C(=O)N[C@@H](C)C(=O)NCC(=O)N[C@H](C(=O)N[C@@H](CCCCN)C(=O)N[C@@H](C)C(=O)N[C@@H](C)C(=O)N[C@@H](CCCCN)C(=O)O)C(C)C)C(C)C [GWGDTFGKVLKNFAKVAGVKAAK]	–	–	–	> 64 µM
C[C@H](NC(=O)[C@H](C)NC(=O)[C@H](CCCCN)NC(=O)[C@H](CCCCN)NC(=O)[C@H](C)NC(=O)[C@H](C)NC(=O)[C@H](CCCCN)NC(=O)[C@H](C)NC(=O)[C@H](C)NC(=O)[C@H](CCCCN)NC(=O)[C@H](CCCCN)NC(=O)[C@H](C)NC(=O)[C@H](C)NC(=O)[C@H](CCCCN)NC(=O)[C@H](C)NC(=O)[C@H](C)NC(=O)[C@H](CCCCN)NC(=O)[C@H](CCCCN)NC(=O)[C@H](C)NC(=O)[C@H](C)NC(=O)[C@@H](N)CCCCN)C(N)=O [KAAKKAAKAAKKAAKAAKKAA]	8 µM (≈ 16.2 µg/mL)	–	–	8 µM (≈ 16.2 µg/mL)
CC(C)C[C@H](NC(=O)[C@H](CCCCN)NC(=O)CNC(=O)[C@H](CC(C)C)NC(=O)[C@H](CCCCN)NC(=O)[C@H](CCCCN)NC(=O)CNC(=O)[C@H](CC(C)C)NC(=O)[C@@H](N)CCCCN)C(=O)NCC(=O)N[C@@H](CCCCN)C(=O)N[C@@H](CCCCN)C(=O)N[C@@H](CC(C)C)C(=O)NCC(N)=O [KLGKKLGKLGKKLG]	22 µM (≈ 32.3 µg/mL)	–	–	22 µM (≈ 32.3 µg/mL)
CC(=O)N[C@@H](CCCCN)C(=O)N[C@@H](CC(C)C)C(=O)N[C@@H](CC(C)C)C(=O)N[C@@H](CCCCN)C(=O)N[C@@H](CC(C)C)C(=O)N[C@@H](CC(C)C)C(=O)N[C@@H](CCCCN)C(=O)N[C@@H](CCCCN)C(=O)N[C@@H](CC(C)C)C(=O)N[C@@H](CC(C)C)C(=O)N[C@@H](CCCCN)C(=O)N1CCC[C@H]1C(=O)N[C@@H](CC(C)C)C(=O)N[C@@H](CCCCN)C(N)=O [KLLKLLKKLLKPLK]	28.3 µM (≈ 48.6 µg/mL)	–	10 µM (≈ 17.2 µg/mL)	–
CC(=O)N[C@@H](CCCCN)C(=O)N[C@@H](CC(C)C)C(=O)N[C@@H](CC(C)C)C(=O)N[C@@H](CCCCN)C(=O)N[C@@H](CC(C)C)C(=O)N[C@@H](CC(C)C)C(=O)N1CCC[C@H]1C(=O)N[C@@H](CCCCN)C(=O)N[C@@H](CC(C)C)C(=O)N[C@@H](CC(C)C)C(=O)N[C@@H](CCCCN)C(=O)N[C@@H](CC(C)C)C(=O)N[C@@H](CC(C)C)C(=O)N[C@@H](CCCCN)C(N)=O [KLLKLLPKLLKLLK]	10 µM (≈ 17 µg/mL)	–	5 µM (≈ 8.51 µg/mL)	–
NCCCC[C@H](NC(=O)[C@H](Cc1c[nH]c2ccccc12)NC(=O)[C@H](Cc1c[nH]c2ccccc12)NC(=O)[C@H](CCCCN)NC(=O)[C@H](CCCCN)NC(=O)[C@H](Cc1c[nH]c2ccccc12)NC(=O)[C@@H](N)CCCCN)C(=O)N[C@@H](Cc1c[nH]c2ccccc12)C(=O)N[C@@H](Cc1ccccc1)C(N)=O [KWKKWWKWF]	2.81 µM (≈ 4 µg/mL)	–	–	–
CC(C)C[C@H](NC(=O)[C@@H](NC(=O)[C@H](C)NC(=O)CNC(=O)[C@H](Cc1c[nH]c2ccccc12)NC(=O)[C@H](CC(N)=O)NC(=O)[C@@H](N)CC(C)C)C(C)C)C(=O)N[C@@H](CCCCN)C(=O)N[C@@H](Cc1cnc[nH]1)C(=O)N[C@H](C(=O)N[C@H](C(=O)N[C@@H](CCCCN)C(=O)O)C(C)C)C(C)C [LNWGAVLKHVVK]	–	32 µM (≈ 43.6 µg/mL)	–	–

More lines, now with the values ahead:

MIC [1]	MIC [2]	MIC [3]	MIC [4]	Structure (SMILES)
14 µM (≈ 16 µg/mL)	14 µM (≈ 16 µg/mL)	> 56.1 µM	–	CC[C@H](C)[C@H](NC(=O)[C@H](CCCCN)NC(=O)[C@H](CCCCN)NC(=O)[C@H](C)N)C(=O)N[C@@H](CCCN=C(N)N)C(=O)N[C@H](C(=O)N[C@@H](CCCN=C(N)N)C(=O)N[C@@H](CC(C)C)C(=O)N[C@@H](CO)C(=O)N[C@@H](C)C(=O)O)C(C)C [AKKIRVRLSA]
> 125 µM	–	–	100 µM (≈ 148 µg/mL)	CC(C)[C@H](NC(=O)[C@H](C)NC(=O)[C@@H](N)Cc1ccccc1)C(=O)N[C@H](C(=O)N[C@@H](Cc1c[nH]c2ccccc12)C(=O)N[C@@H](C)C(=O)N[C@H](C(=O)N[C@@H](CCCCN)C(=O)N[C@@H](Cc1c[nH]c2ccccc12)C(=O)N[C@@H](Cc1c[nH]c2ccccc12)C(=O)N[C@@H](CCCCN)C(=O)NCC(N)=O)[C@@H](C)O)[C@@H](C)O [FAVTWATKWWKG]
15.5 µM (≈ 24.7 µg/mL)	–	–	> 3.1 µM	CC(C)[C@H](NC(=O)[C@@H]1CCCN1C(=O)[C@@H](N)Cc1ccccc1)C(=O)N[C@H](C(=O)N[C@@H](Cc1c[nH]c2ccccc12)C(=O)N[C@@H](CCCN=C(N)N)C(=O)N[C@H](C(=O)N[C@@H](CCCCN)C(=O)N[C@@H](Cc1c[nH]c2ccccc12)C(=O)N[C@@H](Cc1c[nH]c2ccccc12)C(=O)N[C@@H](CCCCN)C(=O)NCC(N)=O)[C@@H](C)O)[C@@H](C)O [FPVTWRTKWWKG]
3 µM (≈ 5.95 µg/mL)	–	–	–	CC[C@H](C)[C@H](NC(=O)CN)C(=O)N[C@@H](CCCCN)C(=O)N[C@@H](CC(=O)O)C(=O)N[C@@H](CC(C)C)C(=O)N[C@@H](CC(C)C)C(=O)N[C@@H](CCCCN)C(=O)NCC(=O)N[C@@H](C)C(=O)N[C@@H](C)C(=O)N[C@@H](CCCCN)C(=O)N[C@@H](C)C(=O)N[C@@H](CC(C)C)C(=O)N[C@H](C(=O)N[C@@H](CCCCN)C(=O)N[C@H](C(=O)N[C@H](C(=O)N[C@@H](CC(C)C)C(=O)N[C@@H](Cc1ccccc1)C(N)=O)C(C)C)[C@@H](C)O)C(C)C [GIKDLLKGAAKALVKTVLF]
94.1 µM (≈ 125 µg/mL)	–	23.5 µM (≈ 31.3 µg/mL)	–	CC(C)[C@H](NC(=O)[C@H](Cc1c[nH]c2ccccc12)NC(=O)[C@H](CCCCN)NC(=O)[C@@H](N)CCCN=C(N)N)C(=O)N[C@@H](CCCCN)C(=O)N[C@@H](Cc1c[nH]c2ccccc12)C(=O)N[C@@H](CCCN=C(N)N)C(=O)N[C@@H](CC(N)=O)C(=O)N[C@@H](CCCN=C(N)N)C(=O)O [RKWVKWRNR]
4 µM (≈ 7.05 µg/mL)	–	–	–	CC(C)C[C@H](NC(=O)[C@H](Cc1ccccc1)NC(=O)[C@H](C)NC(=O)[C@H](Cc1c[nH]c2ccccc12)NC(=O)[C@H](Cc1c[nH]c2ccccc12)NC(=O)[C@H](Cc1c[nH]c2ccccc12)NC(=O)[C@@H]1CCCN1C(=O)[C@H](Cc1ccccc1)NC(=O)[C@H](CCCCN)NC(=O)[C@H](CCCCN)NC(=O)[C@@H](N)C(C)C)C(=O)N[C@@H](CCCCN)C(=O)N[C@@H](CCCCN)C(N)=O [VKKFPWWWAFLKK]
9.3 µM (≈ 9.99 µg/mL)	18.6 µM (≈ 20 µg/mL)	–	4.65 µM (≈ 5 µg/mL)	NC(=O)[C@H](Cc1c[nH]c2ccccc12)NC(=O)[C@H](CCCN=C(N)N)NC(=O)[C@H](Cc1c[nH]c2ccccc12)NC(=O)[C@H](CCCN=C(N)N)NC(=O)[C@H](Cc1c[nH]c2ccccc12)NC(=O)[C@@H](N)Cc1c[nH]c2ccccc12 [WWRWRW]
